According to ChEMBL document CHEMBL1201862, “PubChem BioAssay data set” (2004):
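Exposure lasted 48 hours, with cells grown in 96-well plates and compounds tested at five concentrations. At the GI50, growth is halved.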 Active and inactive are the calls of the source. Rule as the data show it: active = GI50 up to about 1.1 µM and inactive = higher.

How the values were obtained:
Assay in all cases: DTP human tumour cell line panel, 48 h
NCI/ADR-RES = test system: NCI/ADR-RES
EKVX = test system: EKVX
SW-620 = test system: SW-620
HT-29 = test system: HT-29
A498 = test system: A498
M14 = test system: M14
RPMI-8226 = test system: RPMI-8226
SK-MEL-2 = test system: SK-MEL-2
COLO 205 = test system: COLO 205
SN12C = test system: SN12C
Hs-578T = test system: Hs-578T
UACC-257 = test system: UACC-257
MDA-MB-435 = test system: MDA-MB-435
K562 = test system: K562
UO-31 = test system: UO-31
786-0 = test system: 786-0
SK-OV-3 = test system: SK-OV-3
MCF7 = test system: MCF7
SNB-75 = test system: SNB-75
CAKI-1 = test system: CAKI-1
NCI-H226 = test system: NCI-H226
LOX IMVI = test system: LOX IMVI
OVCAR-5 = test system: OVCAR-5
NCI-H522 = test system: NCI-H522
OVCAR-8 = test system: OVCAR-8
SK-MEL-28 = test system: SK-MEL-28
HCC 2998 = test system: HCC 2998
NCI-H23 = test system: NCI-H23
SF-268 = test system: SF-268
MOLT-4 = test system: MOLT-4
PC-3 = test system: PC-3
CCRF-CEM = test system: CCRF-CEM
HCT-15 = test system: HCT-15
HL-60 = test system: HL-60
IGROV-1 = test system: IGROV-1
RXF 393 = test system: RXF 393
DU-145 = test system: DU-145
UACC-62 = test system: UACC-62
SF-295 = test system: SF-295
OVCAR-4 = test system: OVCAR-4
Malme-3M = test system: Malme-3M
T47D = test system: T47D
SK-MEL-5 = test system: SK-MEL-5
A549 = test system: A549
MDA-MB-231 = test system: MDA-MB-231
ACHN = test system: ACHN
SR = test system: SR
U-251 = test system: U-251
KM12 = test system: KM12
NCI-H460 = test system: NCI-H460
SNB-19 = test system: SNB-19
HOP-62 = test system: HOP-62
HCT-116 = test system: HCT-116
HOP-92 = test system: HOP-92
OVCAR-3 = test system: OVCAR-3
MDA-N = test system: MDA-N

How did the GI50 (NCI/ADR-RES) turn out when O=C(NNc1nc(-c2ccccc2)cs1)C(F)(F)F was run?
Its GI50 is 29.9 µM (inactive).

What about the GI50 (EKVX) of the same compound?
The GI50 was 98.9 µM (inactive).

What about the GI50 (SW-620) of the same compound?
The GI50 was 34.4 µM (inactive).

What about the GI50 (HT-29) of the same compound?
Its GI50 is 47.2 µM (inactive).

What about the GI50 (A498) of the same compound?
The GI50 was 37.1 µM (inactive).

What about the GI50 (M14) of the same compound?
The GI50 was 57.1 µM (inactive).

What about the GI50 (RPMI-8226) of the same compound?
Its GI50 is 16.4 µM (inactive).

What about the GI50 (SK-MEL-2) of the same compound?
The GI50 was 36.3 µM (inactive).

And the GI50 (COLO 205)?
Its GI50 is 35.8 µM (inactive).

And the GI50 (SN12C)?
Its GI50 is 75.7 µM (inactive).

What about the GI50 (Hs-578T) of the same compound?
The GI50 was 15.9 µM (inactive).

What about the GI50 (UACC-257) of the same compound?
Its GI50 is 44.3 µM (inactive).

What about the GI50 (MDA-MB-435) of the same compound?
Its GI50 is 34 µM (inactive).

What about the GI50 (K562) of the same compound?
Its GI50 is 25 µM (inactive).

And the GI50 (UO-31)?
The GI50 was 3.3 µM (inactive).

What about the GI50 (786-0) of the same compound?
The GI50 was > 100 µM (inactive).

And the GI50 (SK-OV-3)?
Its GI50 is 61.1 µM (inactive).

And the GI50 (MCF7)?
The GI50 was > 100 µM (inactive).

And the GI50 (SNB-75)?
Its GI50 is 19 µM (inactive).

What about the GI50 (CAKI-1) of the same compound?
Its GI50 is 45.8 µM (inactive).

And the GI50 (NCI-H226)?
The GI50 was 20.5 µM (inactive).

What about the GI50 (LOX IMVI) of the same compound?
The GI50 was 57.7 µM (inactive).

What about the GI50 (OVCAR-5) of the same compound?
Its GI50 is > 100 µM (inactive).

And the GI50 (NCI-H522)?
The GI50 was 35.7 µM (inactive).

And the GI50 (OVCAR-8)?
The GI50 was 33.4 µM (inactive).

What about the GI50 (SK-MEL-28) of the same compound?
Its GI50 is 25.8 µM (inactive).

And the GI50 (HCC 2998)?
Its GI50 is 95.1 µM (inactive).

What about the GI50 (NCI-H23) of the same compound?
The GI50 was 34 µM (inactive).

And the GI50 (SF-268)?
The GI50 was 29.6 µM (inactive).

And the GI50 (MOLT-4)?
Its GI50 is 20 µM (inactive).

What about the GI50 (PC-3) of the same compound?
The GI50 was 37.8 µM (inactive).

What about the GI50 (CCRF-CEM) of the same compound?
Its GI50 is 24.9 µM (inactive).

What about the GI50 (HCT-15) of the same compound?
Its GI50 is 57.3 µM.

What about the GI50 (HL-60) of the same compound?
The GI50 was 33.1 µM (inactive).

What about the GI50 (IGROV-1) of the same compound?
The GI50 was 20.2 µM (inactive).

And the GI50 (RXF 393)?
Its GI50 is 75 µM (inactive).

And the GI50 (DU-145)?
The GI50 was 53.1 µM (inactive).

And the GI50 (UACC-62)?
Its GI50 is 58.7 µM (inactive).

And the GI50 (SF-295)?
The GI50 was 29.5 µM (inactive).

And the GI50 (OVCAR-4)?
Its GI50 is > 100 µM (inactive).

What about the GI50 (Malme-3M) of the same compound?
The GI50 was 53.7 µM (inactive).

And the GI50 (T47D)?
Its GI50 is 23.9 µM (inactive).

What about the GI50 (SK-MEL-5) of the same compound?
The GI50 was 35.3 µM (inactive).

What about the GI50 (A549) of the same compound?
The GI50 was 39.2 µM (inactive).

And the GI50 (MDA-MB-231)?
The GI50 was 68.7 µM (inactive).

And the GI50 (ACHN)?
The GI50 was 29.2 µM (inactive).

What about the GI50 (SR) of the same compound?
Its GI50 is 33.4 µM (inactive).

And the GI50 (U-251)?
Its GI50 is 26.3 µM (inactive).

What about the GI50 (KM12) of the same compound?
Its GI50 is 30.1 µM (inactive).

What about the GI50 (NCI-H460) of the same compound?
The GI50 was 63.5 µM (inactive).

What about the GI50 (SNB-19) of the same compound?
Its GI50 is 63.8 µM (inactive).

What about the GI50 (HOP-62) of the same compound?
The GI50 was 33.2 µM (inactive).

What about the GI50 (HCT-116) of the same compound?
Its GI50 is 47.3 µM (inactive).

Which results are given for COC(C)(C)[C@@H](O)[C@H](O)C[C@H](C)C1=C2CC[C@@H]3[C@@]4(C)CC[C@@H](OC(C)=O)C(C)(C)[C@@H]4C[C@@H](OC4OC(COC(C)=O)C(O)C(O)C4O)[C@@]3(C)[C@]2(C)CC1 (some centres not stated)?
GI50 (SK-OV-3): 15.3 µM (inactive); GI50 (SNB-75): 8.79 µM (inactive); GI50 (U-251): 10.7 µM (inactive)

Which GI50 (NCI/ADR-RES) does the source give for CCCCc1ccc(N2C(=O)c3cc(C)cnc3S2(=O)=O)cc1 here?
The GI50 was > 100 µM (inactive).

And the GI50 (EKVX)?
The GI50 was > 100 µM (inactive).

And the GI50 (SW-620)?
Its GI50 is > 100 µM (inactive).

And the GI50 (HT-29)?
The GI50 was > 100 µM (inactive).

And the GI50 (M14)?
The GI50 was > 100 µM (inactive).

And the GI50 (RPMI-8226)?
Its GI50 is > 100 µM (inactive).

And the GI50 (SK-MEL-2)?
Its GI50 is > 100 µM (inactive).

What about the GI50 (COLO 205) of the same compound?
Its GI50 is > 100 µM (inactive).

What about the GI50 (SN12C) of the same compound?
The GI50 was > 100 µM (inactive).

And the GI50 (Hs-578T)?
The GI50 was 43.1 µM (inactive).

What about the GI50 (MDA-MB-435) of the same compound?
The GI50 was > 100 µM (inactive).

What about the GI50 (K562) of the same compound?
Its GI50 is > 100 µM (inactive).

What about the GI50 (HOP-92) of the same compound?
Its GI50 is > 100 µM (inactive).

And the GI50 (UO-31)?
Its GI50 is > 100 µM (inactive).

And the GI50 (786-0)?
Its GI50 is > 100 µM (inactive).

And the GI50 (SK-OV-3)?
Its GI50 is 63.2 µM (inactive).

And the GI50 (MCF7)?
Its GI50 is > 100 µM (inactive).

And the GI50 (SNB-75)?
The GI50 was 59.2 µM (inactive).

What about the GI50 (NCI-H226) of the same compound?
The GI50 was > 100 µM (inactive).

What about the GI50 (LOX IMVI) of the same compound?
The GI50 was > 100 µM (inactive).

What about the GI50 (OVCAR-5) of the same compound?
Its GI50 is > 100 µM (inactive).

And the GI50 (NCI-H522)?
Its GI50 is > 100 µM (inactive).

What about the GI50 (OVCAR-8) of the same compound?
The GI50 was > 100 µM (inactive).

What about the GI50 (SK-MEL-28) of the same compound?
The GI50 was > 100 µM (inactive).

And the GI50 (OVCAR-3)?
Its GI50 is > 100 µM (inactive).

And the GI50 (HCC 2998)?
The GI50 was > 100 µM (inactive).

And the GI50 (NCI-H23)?
The GI50 was > 100 µM (inactive).

What about the GI50 (SF-268) of the same compound?
Its GI50 is 97.5 µM (inactive).

What about the GI50 (MOLT-4) of the same compound?
The GI50 was > 100 µM (inactive).

What about the GI50 (MDA-N) of the same compound?
Its GI50 is > 100 µM (inactive).

What about the GI50 (PC-3) of the same compound?
Its GI50 is > 100 µM (inactive).

And the GI50 (HCT-15)?
The GI50 was greater than 100 µM.

And the GI50 (HL-60)?
Its GI50 is > 100 µM (inactive).

What about the GI50 (IGROV-1) of the same compound?
The GI50 was > 100 µM (inactive).

And the GI50 (RXF 393)?
The GI50 was 49.2 µM (inactive).

What about the GI50 (DU-145) of the same compound?
Its GI50 is > 100 µM (inactive).

What about the GI50 (SF-295) of the same compound?
Its GI50 is 91.8 µM (inactive).

And the GI50 (OVCAR-4)?
The GI50 was > 100 µM (inactive).

And the GI50 (Malme-3M)?
Its GI50 is > 100 µM (inactive).

And the GI50 (T47D)?
The GI50 was > 100 µM (inactive).

What about the GI50 (SK-MEL-5) of the same compound?
The GI50 was > 100 µM (inactive).

What about the GI50 (A549) of the same compound?
The GI50 was > 100 µM (inactive).

And the GI50 (MDA-MB-231)?
Its GI50 is > 100 µM (inactive).

What about the GI50 (ACHN) of the same compound?
Its GI50 is > 100 µM (inactive).

What about the GI50 (SR) of the same compound?
The GI50 was > 100 µM (inactive).

What about the GI50 (U-251) of the same compound?
Its GI50 is > 100 µM (inactive).

What about the GI50 (KM12) of the same compound?
Its GI50 is > 100 µM (inactive).

And the GI50 (NCI-H460)?
The GI50 was > 100 µM (inactive).

What about the GI50 (SNB-19) of the same compound?
The GI50 was > 100 µM (inactive).

What about the GI50 (HOP-62) of the same compound?
The GI50 was 85.7 µM (inactive).

And the GI50 (HCT-116)?
Its GI50 is > 100 µM (inactive).
